Measurements: patent US20250213707A1, “COMPOUND FOR INCREASING EFFICACY OF ONCOLYTIC VIRUSES” (ABLEVIA BIOTECH GMBH, priority 2022, published 2025)

Experiments:
[1] = tested on: IgG from human donors (anti-measles virus antibodies); assay type: binding; set-up: key: X: The peptides belonging to the Top 10% hits
[2] = tested on: IgG from human donors (anti-AAV antibodies); experiment: Screen for anti-AAV antibodies in human sera, 2452 linear 15-amino-acid AAV peptides on microarrays (Table 1); assay type: binding; set-up: key to group I: X: the deduplicated aggregate of the respective top 10 peptide hits for each donor was compiled and designated as group I; key to group II: X: the deduplicated aggregate of the respective top 25 peptide hits for each donor was compiled and designated as group II; key to group III: X: the deduplicated aggregate of the respective top 50 peptide hits for each donor was compiled and designated as group III; conditions: human donor IgG binding to linear 15-amino-acid AAV peptides on microarray, fluorescence; for group I: membership in deduplicated aggregate of top 10 peptide hits for each donor; for group II: membership in deduplicated aggregate of top 25 peptide hits for each donor; for group III: membership in deduplicated aggregate of top 50 peptide hits for each donor
How it was run: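 Peptide hits were grouped I to IV by pooling each donor's top 10, 25, 50 or 250 background-corrected fluorescence signals, after deduplication. Signals came from donor IgG, purified on protein G, bound to arrayed 15-residue linear peptides (2452 total) spanning 16 AAV sequences.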

mAb 9C12 = experiment: Epitope mapping of monoclonal antibody 9C12 against cyclic peptides of the AdV hexon protein (peptide microarray); assay type: binding, mice; conditions: cyclic 7mer, 10mer, 13mer peptides of AdV hexon
Description: Monoclonal antibody 9C12 (alias mAB TC31-9C12·C9-s) was generated by immunizing mice with the hexon protein (Uniprot ID: P04133 which corresponds to GenBank: BAG48782.1). […] In brief, diluted antibody was incubated with GFP-expressing replication-defective Ad vector and subsequently added to Hela cells followed by fluorescence readout. […] The binding signal of mAb 9C12 to the peptides yielded several candidates that could be aligned and clustered against the protein. An epitopic cluster region of 20 amino acids was identified from which paratope binding peptides can be preferentially derived. Below are the aligments of the corresponding peptide hits from this screen. […] Cyclic peptides were selected out of up to 50 top binders in this experiment.

mAb Mac2-158 = experiment: Epitope mapping of mAb Mac2-158 with circular peptides of human CD163 SRCR domain 1; assay type: binding; conditions: circular peptides aligned to SRCR domain 1 of human CD163
Description: As a result, the following sequences (as well as motifs derived therefrom) are highly suitable epitopes anti-CD163 antibodies and fragments thereof used as SADC biopolymer scaffold: […]

Row | Substance | top 10% [1] | group I [2] | group II [2] | group III [2] | ranked binding signal obtained from the microarray (01 binds strongest) (mAb 9C12) | peptide number among the top 20 peptide hits of mAb Mac2-158 (mAb Mac2-158)
1 | STNLQRGNLALGET [SEQ ID NO: 1894] | X | X | X | X |  | 
2 | KKRPVDQSPQEPDS (REGION 1..14: note = peptide derived from viral capsid protein) [SEQ ID NO: 1985] |  | X | X | X | 18 | 
3 | PQYGYLTLNNGSQA (REGION 1..14: note = peptide derived from viral capsid protein) [SEQ ID NO: 1901] |  | X | X | X |  | 14
4 | YFGYSTPWGYFDFN (REGION 1..14: note = peptide derived from viral capsid protein) [SEQ ID NO: 1972] |  | X | X | X | 05 | 
5 | LSRTQSTGGTQGTQ [SEQ ID NO: 1973] |  | X | X | X | 06 | 
6 | GKKRPVDQSPQEPD (REGION 1..14: note = peptide derived from viral capsid protein) [SEQ ID NO: 1919] | X | X | X | X |  | 
7 | YLYYLNRTQGTTSG [SEQ ID NO: 1925] | X | X | X | X |  | 
8 | KSVNVDFTVDTNGV (REGION 1..14: note = peptide derived from viral capsid protein) [SEQ ID NO: 1987] |  | X | X | X | 20 | 
9 | DGHFHPSPLMGGFG (REGION 1..14: note = peptide derived from viral capsid protein) [SEQ ID NO: 1977] |  | X | X | X | 10 | 
10 | DSESVPDPQPLGEP (REGION 1..14: note = peptide derived from viral capsid protein) [SEQ ID NO: 1978] |  | X | X | X | 11 | 
11 | TIANNLTSTIQVFT (REGION 1..14: note = peptide derived from viral capsid protein) [SEQ ID NO: 1968] |  | X | X | X | 01 | 
12 | IFNIQVKEVTTSNG (REGION 1..14: note = peptide derived from viral capsid protein) [SEQ ID NO: 1907] |  | X | X | X |  | 02
13 | FQERLKEDTSFGGN (REGION 1..14: note = peptide derived from viral capsid protein) [SEQ ID NO: 1981] |  | X | X | X | 14 | 
14 | KRPVDQSPQEPDSS (REGION 1..14: note = peptide derived from viral capsid protein) [SEQ ID NO: 1986] |  | X | X | X | 19 | 
15 | GADGVGNSSGNWHC (REGION 1..14: note = peptide derived from viral capsid protein) [SEQ ID NO: 1982] |  | X | X | X | 15 | 
16 | PEIQYTSNYNKSVN (REGION 1..14: note = peptide derived from viral capsid protein) [SEQ ID NO: 1921] | X | X | X | X |  | 
17 | FGKQGAGRDNVDYS [SEQ ID NO: 1915] | X | X | X | X |  | 
18 | YDQQLKAGDNPYLK (REGION 1..14: note = peptide derived from viral capsid protein) [SEQ ID NO: 1924] | X | X | X | X |  | 

Row | Substance | top 10% [1] | group I [2] | group II [2] | group III [2] | ranked binding signal obtained from the microarray (01 binds strongest) (mAb 9C12) | peptide number among the top 20 peptide hits of mAb Mac2-158 (mAb Mac2-158)
19 | SFITQYSTGQVSVE (REGION 1..14: note = peptide derived from viral capsid protein) [SEQ ID NO: 1914] |  | X | X | X |  | 17
20 | FNIQVKEVTTNDGV (REGION 1..14: note = peptide derived from viral capsid protein) [SEQ ID NO: 1910] |  | X | X | X |  | 06
21 | DAEFQERLKEDTSF (REGION 1..14: note = peptide derived from viral capsid protein) [SEQ ID NO: 1975] |  | X | X | X | 08 | 
22 | EEEIRTTNPVATEQ (REGION 1..14: note = peptide derived from viral capsid protein) [SEQ ID NO: 1979] |  | X | X | X | 12 | 
23 | GETTRPATAAQTQV [SEQ ID NO: 1906] |  | X | X | X |  | 01
24 | DDEEKFFPMHGNLI [SEQ ID NO: 1976] |  | X | X | X | 09 | 
25 | VTQNEGTKTIANNL [SEQ ID NO: 1970] |  | X | X | X | 03 | 
26 | EEIRTTNPVATEQY (REGION 1..14: note = peptide derived from viral capsid protein) [SEQ ID NO: 1980] |  | X | X | X | 13 | 
27 | WLEDNLSEGIREWW (REGION 1..14: note = peptide derived from viral capsid protein) [SEQ ID NO: 1971] |  | X | X | X | 04 | 
28 | LIKNTPVPADPPTT (REGION 1..14: note = peptide derived from viral capsid protein) [SEQ ID NO: 1900] |  | X | X | X |  | 12
29 | GQTGDSESVPDPQP [SEQ ID NO: 1911] |  | X | X | X |  | 08
30 | LEDNLSEGIREWWD (REGION 1..14: note = peptide derived from viral capsid protein) [SEQ ID NO: 1898] |  | X | X | X |  | 04
31 | TQGTQQLLFSQAGP [SEQ ID NO: 1974] |  | X | X | X | 07 | 
32 | QLKAGDNPYLRYNH (REGION 1..14: note = peptide derived from viral capsid protein) [SEQ ID NO: 1913] |  | X | X | X |  | 13
33 | GNGLDKGEPVNAAD [SEQ ID NO: 1984] |  | X | X | X | 17 | 
34 | GDSESVPDPQPLGE [SEQ ID NO: 1983] |  | X | X | X | 16 | 
35 | TQYSTGQVSVEIEW (REGION 1..14: note = peptide derived from viral capsid protein) [SEQ ID NO: 1969] |  | X | X | X | 02 | 
36 | 365 (CSGRVEVKVQEEW) [compound 365] |  |  |  |  |  | 07
